Test results published in patent US9567320B2, “Pyridazinone-amides derivatives” (Merck Patent GmbH, priority 2013, dated 2017).

Legend:
IRAK1 = IRAK1 (Homo sapiens (Human), UniProt P51617); test: IRAK1 enzymatic assay; type: biochemical; settings: human recombinant His-TEV-IRAK1, ATP 1 μM, FlashPlate
Procedure: IRAK1 is a human purified recombinant enzyme (His-TEV-IRAK1 (194-712)) In this assay, IRAK-1 hydrolyses ATP and autophosphorylates.
Measurement of IRAK-1 inhibition is performed in streptavidin coated 384 well FlashPlate (PerkinElmer #SMP410A).
(§1) His-TEV-IRAK-1 (15 ng/well), ATP (1 μM, [^33P]ATP 0.25 μCi/well) and compounds in DMSO (range of concentrations from 20 μM to 1 nM) or controls (2% DMSO) are incubated for 3 hours at 30° C. in assay buffer: Hepes pH7.0 50 mM, Fatty acid-free BSA 0.1%, Dithiothreitol DTT 2 mM, MgCl2 10 mM, EGTA 0.5 mM, Triton-X-100 0.01%. Kinase reaction is stopped by addition of EDTA. Supernatant is discarded, plates are washed three times with 150 mM NaCl and radioactivity is then measured in a Microbeta Trilux reader.

IRAK4 = IRAK4 (Homo sapiens (Human), UniProt Q9NWZ3); test: IRAK4 enzymatic assay; type: biochemical; settings: human recombinant His-TEV-IRAK4, ATP 2 μM, STK1-biotin peptide, FlashPlate
Chain of IRAK4 (Q9NWZ3 whole entry): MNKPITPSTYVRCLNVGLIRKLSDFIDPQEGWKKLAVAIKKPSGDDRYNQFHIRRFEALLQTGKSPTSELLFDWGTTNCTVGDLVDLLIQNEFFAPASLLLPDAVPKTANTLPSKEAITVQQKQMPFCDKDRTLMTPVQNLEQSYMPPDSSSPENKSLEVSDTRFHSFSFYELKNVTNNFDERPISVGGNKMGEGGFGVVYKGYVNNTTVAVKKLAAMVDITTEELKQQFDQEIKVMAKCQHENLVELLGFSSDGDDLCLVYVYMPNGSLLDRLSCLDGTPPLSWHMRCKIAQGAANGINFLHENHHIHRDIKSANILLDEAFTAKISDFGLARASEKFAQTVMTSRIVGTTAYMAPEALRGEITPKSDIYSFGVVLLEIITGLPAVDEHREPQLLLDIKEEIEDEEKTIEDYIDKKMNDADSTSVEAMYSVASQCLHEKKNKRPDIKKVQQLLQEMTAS
Procedure: IRAK4 is a human purified recombinant enzyme (His-TEV-IRAK1 (194-712)
IRAK4 hydrolyses ATP, autophosphorylates and phosphorylates a Serine/Threonine generic peptidic substrate (STK: 61ST1BLC from CisBio International based in Bagnols/Cèze FR).
as §1, with “Measurement of IRAK-4 inhibition is performed in streptavidin coated 384 well FlashPlate (PerkinElmer #SMP410A). His-TEV-IRAK4 (20” for “His-TEV-IRAK-1 (15”, “(2” for “(1”, “μCi/well), STK1-biotin peptide (300 nM)” for “μCi/well)”, “Tween-20 0.01%, MnCl2 5 mM.” for “Triton-X-100 0.01%.”

Chain of IRAK1 (P51617 194-712): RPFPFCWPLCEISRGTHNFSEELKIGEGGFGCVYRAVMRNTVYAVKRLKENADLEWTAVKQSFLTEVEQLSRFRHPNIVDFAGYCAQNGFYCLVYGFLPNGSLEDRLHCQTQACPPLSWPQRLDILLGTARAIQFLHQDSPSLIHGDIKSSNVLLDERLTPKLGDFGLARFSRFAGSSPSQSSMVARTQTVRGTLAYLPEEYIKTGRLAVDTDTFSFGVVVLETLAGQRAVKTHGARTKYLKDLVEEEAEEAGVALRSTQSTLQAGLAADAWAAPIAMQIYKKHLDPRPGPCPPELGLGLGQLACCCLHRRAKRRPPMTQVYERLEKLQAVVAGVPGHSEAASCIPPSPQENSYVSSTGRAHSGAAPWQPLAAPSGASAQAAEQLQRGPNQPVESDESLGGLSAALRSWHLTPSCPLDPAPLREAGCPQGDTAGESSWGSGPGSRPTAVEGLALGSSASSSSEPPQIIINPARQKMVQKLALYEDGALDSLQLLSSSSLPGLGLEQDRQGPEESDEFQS

IC50 (IRAK1) [µM] | IC50 (IRAK4) [µM] | SMILES
 | 0.1 to 1 | Cc1ccncc1-c1ccc(=O)n(Cc2cccc(C(=O)Nc3nc4ccccc4[nH]3)c2)n1 [Example 12, N-(1H-benzo[d]imidazol-2-yl)-3-((3-(4-methylpyridin-3-yl)-6-oxopyridazin-1(6H)-yl)methyl)benzamide]
< 0.1 | 0.1 to 1 | COc1ccc2[nH]c(NC(=O)c3cccc(Cn4nc(-c5cccnc5)ccc4=O)c3)nc2c1 [Example 16, N-(5-methoxy-1H-benzo[d]imidazol-2-yl)-3-((6-oxo-3-(pyridin-3-yl)pyridazin-1(6H)-yl)methyl)benzamide]
< 0.1 | < 0.1 | O=C(Nc1nc2cc(CO)ccc2[nH]1)c1cccc(Cn2nc(-c3cccnc3)ccc2=O)c1 [Example 5, N-(5-Hydroxymethyl-1H-benzoimidazol-2-yl)-3-(6-oxo-3-pyridin-3-yl-6H-pyridazin-1-ylmethyl)-benzamide]
0.1 to 1 | 0.1 to 1 | Cc1cc(-c2ccc(=O)n(Cc3cccc(C(=O)Nc4nc5ccccc5[nH]4)c3)n2)cnn1 [Example 13, N-(1H-benzo[d]imidazol-2-yl)-3-((3-(6-methylpyridazin-4-yl)-6-oxopyridazin-1(6H)-yl)methyl)benzamide]
0.1 to 1 | < 0.1 | COc1cc2nc(NC(=O)c3cccc(Cn4nc(-c5cccnc5)ccc4=O)c3)[nH]c2cc1OC [Example 15, N-(5,6-dimethoxy-1H-benzo[d]imidazol-2-yl)-3-((6-oxo-3-(pyridin-3-yl)pyridazin-1(6H)-yl)methyl)benzamide]
 | < 0.1 | O=C(Nc1nc2ccccc2[nH]1)c1cccc(Cn2nc(-c3ccc(CO)nc3)ccc2=O)c1 [Example 7, N-(1H-Benzoimidazol-2-yl)-3-[3-(6-hydroxymethyl-pyridin-3-yl)-6-oxo-6H-pyridazin-1-ylmethyl]-benzamide]
 | 1 to 5 | CN(C)Cc1cncc(-c2ccc(=O)n(Cc3cccc(C(=O)Nc4nc5ccccc5[nH]4)c3)n2)c1 [Example 14, N-(1H-benzo[d]imidazol-2-yl)-3-((3-(5-((dimethylamino)methyl)pyridin-3-yl)-6-oxopyridazin-1(6H)-yl)methyl)benzamide]
 | 1 to 5 | COC(=O)c1ccc2[nH]c(NC(=O)c3cccc(Cn4nc(-c5cccnc5)ccc4=O)c3)nc2c1 [Example 4, 2-[3-(6-Oxo-3-pyridin-3-yl-6H-pyridazin-1-ylmethyl)-benzoylamino]-1H-benzoimidazole-5-carboxylic acid methyl ester]

Continued, compound first:

SMILES | IC50 (IRAK1) [µM] | IC50 (IRAK4) [µM]
Cc1cc(=O)n(Cc2cccc(C(=O)Nc3nc4ccccc4[nH]3)c2)nc1-c1cccnc1 [Example 10] | 0.1 to 1 | 
CC(C)(C)C(=O)Oc1ccc2[nH]c(NC(=O)c3cccc(Cn4nc(-c5cccnc5)ccc4=O)c3)nc2c1 [Example 1, 2,2-Dimethyl-propionic acid 2-[3-(6-oxo-3-pyridin-3-yl-6H-pyridazin-1-ylmethyl)-benzoylamino]-1H-benzoimidazol-5-yl ester] | 0.1 to 1 | < 0.1
O=C(Nc1nc2ccccc2[nH]1)c1cccc(Cn2nc(-c3cncnc3)ccc2=O)c1 [Example 8, N-(1H-Benzoimidazol-2-yl)-3-(6-oxo-3-pyrimidin-5-yl-6H-pyridazin-1-ylmethyl)-benzamide] | 0.1 to 1 | 0.1 to 1
O=C(Nc1nc2ccccc2[nH]1)c1cccc(Cn2nc(-c3cccnc3)ccc2=O)c1 [Example 2, N-(1H-Benzoimidazol-2-yl)-3-(6-oxo-3-pyridin-3-yl-6H-pyridazin-1-ylmethyl)-benzamide] | < 0.1 | 0.1 to 1
O=C(Nc1nc2ccccc2[nH]1)c1cccc(Cn2nc(-c3cncc(CO)c3)ccc2=O)c1 [Example 17, N-(1H-Benzoimidazol-2-yl)-3-[3-(5-hydroxymethyl-pyridin-3-yl)-6-oxo-6H-pyridazin-1-ylmethyl]-benzamide] | < 0.1 | < 0.1
Cn1c(NC(=O)c2cccc(Cn3nc(-c4cccnc4)ccc3=O)c2)nc2ccccc21 [Example 3, N-(1-Methyl-1H-benzoimidazol-2-yl)-3-(6-oxo-3-pyridin-3-yl-6H-pyridazin-1-ylmethyl)-benzamide] |  | 1 to 5
CN(C)Cc1ccc(-c2ccc(=O)n(Cc3cccc(C(=O)Nc4nc5ccccc5[nH]4)c3)n2)cn1 [Example 11, N-(1H-benzo[d]imidazol-2-yl)-3-((3-(6-((dimethylamino)methyl)pyridin-3-yl)-6-oxopyridazin-1(6H)-yl)methyl)benzamide] | 1 to 5 | 1 to 5
CN(C)C(=O)Cc1ccc2[nH]c(NC(=O)c3cccc(Cn4nc(-c5cccnc5)ccc4=O)c3)nc2c1 [Example 6, N-(5-Dimethylcarbamoylmethyl-1H-benzoimidazol-2-yl)-3-(6-oxo-3-pyridin-3-yl-6H-pyridazin-1-ylmethyl)-benzamide] | < 0.1 | < 0.1
Nc1ccc(-c2ccc(=O)n(Cc3cccc(C(=O)Nc4nc5ccccc5[nH]4)c3)n2)cn1 [Example 9, 3-[3-(6-Amino-pyridin-3-yl)-6-oxo-6H-pyridazin-1-ylmethyl]-N-(1H-benzoimidazol-2-yl)-benzamide] | < 0.1 | < 0.1
